Values quoted from earlier work in patent US6759200B1, “Thymidine phosphorylase gene sequence variances having utility in determining the treatment of disease” (Nuvelo, Inc., priority 1998, dated 2004).
Counter-ions that a name gives are not always drawn. Like-named read-outs stand apart in the source and are kept apart here.

Experiments:
[1] = target: T1, dihydropyrimidine dehydrogenase (DPD) (Homo sapiens, UniProt Q12882)
T1 construct: host or cells: human subjects in vivo (endogenous enzyme)
T1 sequence (Q12882 4-1025): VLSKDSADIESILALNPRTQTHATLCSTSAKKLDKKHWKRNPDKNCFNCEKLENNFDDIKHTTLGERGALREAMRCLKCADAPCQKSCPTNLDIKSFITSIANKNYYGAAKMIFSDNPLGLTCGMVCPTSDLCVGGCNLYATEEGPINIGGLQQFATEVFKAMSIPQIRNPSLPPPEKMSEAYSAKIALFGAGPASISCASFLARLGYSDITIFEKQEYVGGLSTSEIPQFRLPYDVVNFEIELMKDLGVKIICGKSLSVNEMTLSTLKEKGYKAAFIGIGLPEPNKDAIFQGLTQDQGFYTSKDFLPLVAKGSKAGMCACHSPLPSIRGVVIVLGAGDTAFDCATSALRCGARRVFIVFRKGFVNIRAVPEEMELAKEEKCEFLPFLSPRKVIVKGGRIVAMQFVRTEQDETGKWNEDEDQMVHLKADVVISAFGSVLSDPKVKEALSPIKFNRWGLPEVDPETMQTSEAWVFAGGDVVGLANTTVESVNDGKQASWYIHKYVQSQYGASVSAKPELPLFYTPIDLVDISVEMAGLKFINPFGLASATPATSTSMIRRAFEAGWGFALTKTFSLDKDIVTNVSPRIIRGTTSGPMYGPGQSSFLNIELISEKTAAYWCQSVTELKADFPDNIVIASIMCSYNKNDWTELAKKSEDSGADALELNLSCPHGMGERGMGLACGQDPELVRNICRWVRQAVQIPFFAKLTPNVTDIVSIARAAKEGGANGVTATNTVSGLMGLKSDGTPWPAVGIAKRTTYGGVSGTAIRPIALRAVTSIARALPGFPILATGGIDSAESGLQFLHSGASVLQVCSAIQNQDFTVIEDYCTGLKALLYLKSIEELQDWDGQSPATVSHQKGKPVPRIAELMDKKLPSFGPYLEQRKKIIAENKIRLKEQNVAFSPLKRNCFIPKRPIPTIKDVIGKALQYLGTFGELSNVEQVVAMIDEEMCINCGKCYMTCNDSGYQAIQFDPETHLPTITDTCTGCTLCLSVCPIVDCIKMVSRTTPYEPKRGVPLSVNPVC

[2] = up to; depending on the regimen
[3] = system: advanced colorectal cancer
Alzheimer's disease = conditions: PDR
nucleoside transport = nucleoside transport inhibitor paired with 5-FU and FA; Kohne et al. 1995
[4] = people genetically deficient in DPD, Diasio et al. 1988
[5] = Alzheimer's patients receiving Cognex

In the case of `Cc1cn([C@H]2C[C@H](O)[C@@H](COP(=O)(O)OP(=O)(O)OP(=O)(O)O)O2)c(=O)[nH]c1=O` [deoxythymidine triphosphate], the “release of thromboxane A2” value (cultured glial cells) is given as “concentration-dependent increases”.

In the case of `O=c1[nH]cc(F)c(=O)[nH]1` [5-FU, 5-fluorouracil], the “dose of 5-FU transformed (catabolized) by DPD to the inactive dihydrofluorouracil form” value ([1]; in vivo) is listed as “more than 80%”, the “injected dose rapidly inactivated by DPD to therapeutically inactive catabolic products” value ([1]; injected dose) is listed as “More than 85%” and the “patients suffering serious gastrointestinal or hematopoietic toxicity” value [2] is listed as 20-30%. The “dose excreted unchanged in the urine” value (normal individuals) was 10%, the elimination half life (normal individuals) was 0.167 to 0.25 h and the “dose excreted unchanged in the urine” value [4] was 90%. For the same compound, the elimination half life [4] was 2.5 h, the partial remissions ([3]; 5-FU alone, advanced colorectal cancers) was 10-30% and the “patients with an objective response” value ([3]; advanced colorectal cancer) was 20-40%. For the same compound, the “patients with a complete response (complete tumor disappearance)” value ([3]; advanced colorectal cancer, of the objective responders) was 1-5%.

For `Nc1c2c(nc3ccccc13)CCCC2` [Cognex, tacrine hydrochloride], the “patients showing no change or minimal worsening of their disease” value (Alzheimer's disease; Alzheimer's disease patients receiving Cognex) is given as “about 45%”, the patients minimally improved (Alzheimer's disease; [5]) is given as “About 58%” and the patients much improved (Alzheimer's disease; [5]) is given as “about 2%”.

For `O=c1ccn([C@@H]2O[C@H](COP(=O)(O)OP(=O)(O)O)[C@@H](O)[C@H]2O)c(=O)[nH]1` [uridine diphosphate], the “release of thromboxane A2” value (cultured glial cells) is given as “concentration-dependent increases”.

In the case of `O=c1ccn([C@@H]2O[C@H](COP(=O)(O)OP(=O)(O)OP(=O)(O)O)[C@@H](O)[C@H]2O)c(=O)[nH]1` [Uridine triphosphate], the “release of thromboxane A2” value (cultured glial cells) is listed as “concentration-dependent increases”.

In the case of `Nc1ccn([C@@H]2O[C@H](COP(=O)(O)OP(=O)(O)OP(=O)(O)O)[C@@H](O)[C@H]2O)c(=O)n1` [cytidine triphosphate], the “release of thromboxane A2” value (cultured glial cells) is given as “concentration-dependent increases”.

For `OCCN(CCO)c1nc(N2CCCCC2)c2nc(N(CCO)CCO)nc(N3CCCCC3)c2n1` [dipyridamole], the “outcome compared to 5-FU/FA alone” value (nucleoside transport) is given as “failed to show a difference in outcome”.
